# In patent US20250326748A1, “COMPOUNDS AND METHODS FOR MODULATING SPLICING” (REMIX THERAPEUTICS INC., priority 2022, published 2025):
# Where a name gives a salt, the structure may show the parent alone. Read-outs that look alike come from different tables or passages of the source.
# What was measured:
# K562 cells = assay: Cell viability, Cell Titer Glo 2.0 assay, K562; settings: 72 hours
# Experimental: Compounds described herein were screened for toxicity in K562 (human chronic myelogenous leukemia) and SH-SY5Y (human neuroblastoma) cells using a Cell Titer Glo 2.0 assay.
# • Promega CellTiter-Glo® 2.0 Cell Viability Assay (cat #G9241) • Corning 384-well TC-treated microplates (cat #3570)
# Cells were plated at 500 cells/well (K562 cells) in 45 μL of IMDM supplemented with 10% FBS in a 384-well opaque plate. Wells containing only medium were used as a blank control. Test compounds (e.g., compounds of Formula (I) or (II)) were first serially diluted in DMSO then diluted 1:100 with IMDM+10% FBS. The final concentration of DMSO was 0.1% in each well. The cells were incubated for 72 hours at 37° C. and 5% CO2 before assaying with Cell Titer Glo 2.0 reagent.
# HiBiT-tagged HTT protein = assay: HiBiT protein abundance assay, HTT (K562 HiBiT knock-in); format: cell-based, human; settings: HiBiT knock-in cells, 24 hours
# Experimental: (§1) Compounds described herein were used to screen for effects on quantitative protein abundance using a HiBit assay system (Promega). Quantitative protein abundance was determined by measuring the protein levels of HiBit-tagged protein targets expressed in cell culture via luminescence using the Nano-Glo HiBiT Lytic Detection System, which uses a split complementation assay format to reconstitute NanoBiT enzyme to generate a luminescent signal. A protein abundance assay was developed such that endogenous protein targets could be modified with the HiBiT peptide tag and their abundance could be assessed after compound treatment. Briefly, K562 cell lines containing a HiBiT-modification were treated with various compounds described herein (e.g., compounds of Formulas (I), or (II)). After treatment for 24 hours, the protein abundance of a specific target was determined by measuring luminescence.
# (§2) • Promega Nano-Glo HiBiT Lytic Detection System (cat #N3030) • Corning 384-well TC-treated microplates (cat #3570)
# (§3) Cells were maintained in IMDM with 10% FBS. Before the assay, cells were diluted with […] growth media (IMDM+1% FBS media) and were seeded in a 384-well plate at a density of 10000 cells/well (for each cell line listed in Table 6). Each compound was prepared as a 10-point 3-old serial dilution in DMSO with the top dose at a final concentration of 10 μM in the well. Unmodified K562 cells were added at the previously specified density with DMSO to serve as an assay baseline and positive control (PC) and DMSO only with the respective modified cell lines was added to the negative control (NC) columns. Final DMSO concentration was kept at or below 0.25%. Treated cell plates were placed in an incubator at 37° C. with 5% CO2 for 24 hours. After 24 hours, 25 μL of Complete HiBit Lytic reagent was added to each well at room temperature (e.g. one plate requiring 10 ml Lytic Buffer, 100 μL LgBiT Protein, 200 μL Lytic Substrate), shaken for 5 minutes at 600 RPM, then left to sit for 10 minutes for signal to stabilize before reading on a Spark Cyto plate reader (Tecan) with a 500 ms measurement time.
# (§4) To determine compound effects on protein abundance of each target in Table 6, the percent response for each respective cell line was calculated at each compound concentration as follows:
# (§5) For the normalized response at each concentration, a four-parameter logistical regression was fit to the data and the response was interpolated at the 50% value to determine a concentration for protein abundance at 50% (IC50) the untreated control.
# HiBiT-tagged MYB protein = assay: HiBiT protein abundance assay, MYB (K562 HiBiT knock-in); format: cell-based, human; settings: HiBiT knock-in cells, 24 hours
# Experimental: as §1, §2, §3, §4, §5
# Target C = assay: HiBiT protein abundance assay, Target C (K562 HiBiT knock-in); format: cell-based, human; settings: HiBiT knock-in cells, 24 hours
# Experimental: as §3, §4, §5
# Target C mRNA = assay: Splicing RT-qPCR panel, Target C canonical junction (CJ) mRNA; format: cell-based, human; settings: Homo sapiens, read-out: Target C CJ (decrease in CJ mRNA levels, IC50)
# How it was run: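 A673 cells (DMEM, 10% FBS) or K562 cells (IMDM, 10% FBS) treated 24 h at 37 °C with an 11-point 3-fold dilution, top 10 uM, DMSO ≤0.25%. Canonical-junction mRNA quantified in lysates by RT-qPCR, normalised to GAPDH, GUSB or PPIA and to DMSO (2^−ΔΔCt), then converted to % response.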
# SMN2 mRNA = assay: Splicing RT-qPCR panel, SMN2 canonical junction (CJ) mRNA; format: cell-based, human; settings: Homo sapiens, read-out: SMN2 CJ (decrease in CJ mRNA levels, IC50)
# Experimental: Compounds described herein were used to modulate RNA transcript abundance in cells. The expression of a target mRNA was measured by detecting the formation of an exon-exon junction in the canonical transcript (CJ). A compound mediated exon-inclusion event was detected by observing an increase in formation of a new junction with an alternative exon (AJ). Real-time qPCR assays were used to detect these splicing switches and interrogate the potency of various compounds towards different target genes. A high-throughput real time quantitative PCR (RT-qPCR) assay was developed to measure these two isoforms of the mRNA (CJ and AJ) for exemplary genes, such as HTT, SMN2, and MYB, together with a control housekeeping gene, GAPDH or GUSB or PPIA, used for normalization. Briefly, the A673 or K562 cell line was treated with various compounds described herein (e.g., compounds of Formula (D). After treatment, the levels of the HTT, MYB, or SMN2 mRNA targets were determined from each sample of cell lysate by cDNA synthesis followed by qPCR.
# The A673 cell line was cultured in DMEM with 10% FBS. Cells were diluted with full growth media and plated in a 96-well plate (15,000 cells in 100 ul media per well). The plate was incubated at 37° C. with 5% CO2 for 24 hours to allow cells to adhere. An 11-point 3-fold serial dilution of the compounds was made in DMSO then diluted in media in an intermediate plate. Compounds were transferred from the intermediate plate to the cell plate with the top dose at a final concentration of 10 uM in the well. Final DMSO concentration was kept at or below 0.25%. The cell plate was returned to the incubator at 37° C. with 5% CO2 for an additional 24 hours.
# The K562 cell line was cultured in IMDM with 10% FBS. For K562, cells were diluted with full growth media and plated in either a 96-well plate (50,000 cells in 50 uL media per well) or a 384-well plate (8,000-40,000 cells in 45 uL media per well). An 11-point 3-fold serial dilution of the compounds were made in DMSO then diluted in media in an intermediate plate. Compound was transferred from the intermediate plate to the cell plate with the top dose at a final concentration of 10 uM in the well. Final DMSO concentration was kept at or below 0.25%. Final volume was 100 uL for 96-well plate and 50 uL for 384-well plate. The cell plate was then placed in an incubator at 37° C. with 5% CO2 for 24 hours.
# The cells were then gently washed with 50 uL-100 uL cold PBS before proceeding to addition of lysis buffer. 30 uL-50 μL of room temperature lysis buffer with DNAse I (and optionally RNAsin) was added to each well. Cells were shaken/mixed thoroughly at room temperature for 5-10 minutes for lysis to take place and then 3 uL-5 μL of room temperature stop solution was added and wells were shaken/mixed again. After 2-5 minutes, the cell lysate plate was transferred to ice for RT-qPCR reaction setup. The lysates could also be frozen at −80° C. for later use.
# In some cases, a direct lysis buffer was used. An appropriate volume of 3× lysis buffer (10 mM Tris, 150 mM NaCl, 1.5%-2.5% Igepal and 0.1-1 U/uL RNAsin, pH 7.4) was directly added to either K562 or A673 cells in media and mixed by pipetting 3 times. The plates were then incubated at room temperature with shaking/rocking for 20-50 minutes to allow for lysis to take place. After this time, the cell lysate plate was transferred to ice to set up for the RT-qPCR reactions. The lysates could also be frozen at −80° C. for later use.
# To set up 10 uL RT-qPCR reactions, cell lysates were transferred to 384-well qPCR plates containing the master mix according to the table below. The plates were sealed, gently vortexed, and spun down before the run. The volumes were adjusted accordingly in some instances where the reaction was carried in 20 μL. The table below summarizes the components of the RT-qPCR reactions:
# The RT-qPCR reaction was performed using a QuantStudio (ThermoFisher) under the following fast cycling conditions. […]
# HTT mRNA = assay: Splicing RT-qPCR assay, HTT canonical (CJ) and alternative (AJ) junction mRNA; format: cell-based, human; settings: Homo sapiens; for IC50: canonical junction mRNA; for AC50: alternative junction mRNA, read-out: HTT AJ (AC50, increase in AJ mRNA)
# How it was run: (§6)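 Read-out: one-step RT-qPCR on crude lysates measuring exon-exon junction isoforms, CJ for the canonical transcript and AJ for compound-induced exon inclusion. Normalization used PPIA for adherent A673 and GAPDH or GUSB for K562. Cells received 11 doses, 3-fold apart, top 10 uM, for 24 h.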
# MYB mRNA = assay: Splicing RT-qPCR assay, MYB canonical (CJ) and alternative (AJ) junction mRNA; format: cell-based, human; settings: Homo sapiens; for IC50: canonical junction mRNA; for AC50: alternative junction mRNA, read-out: MYB AJ (AC50, increase in AJ mRNA)
# How it was run: as §6
# [1] = 24 h, RT-qPCR, A673 or K562 cells, 24 hours treatment, read-out: HTT CJ (IC50, decrease in CJ mRNA)
# [2] = qPCR panel, read-out: HTT CJ (decrease in CJ mRNA levels, IC50)
# [3] = RT-qPCR, A673 or K562 cells, 24 hours treatment
# [4] = qPCR panel, read-out: MYB CJ (decrease in CJ mRNA levels, IC50)
# [5] = RT-qPCR, A673 or K562 cells, 24 hours treatment, read-out: MYB CJ (IC50, decrease in CJ mRNA)
IC50 (HiBiT-tagged HTT protein) [nM],IC50 (HiBiT-tagged MYB protein) [nM],IC50 (Target C) [nM],IC50 (Target C mRNA) [nM],IC50 (SMN2 mRNA) [nM],IC50 (HTT mRNA; [1]) [nM],IC50 (HTT mRNA; [2]) [nM],IC50 (MYB mRNA; [4]) [nM],IC50 (MYB mRNA; [5]) [nM],SMILES,"Effect on Cell Viability, K562 (K562 cells)",AC50 (HTT mRNA; [3]) [nM],AC50 (MYB mRNA; [3]) [nM]
< 100,< 100,< 100,–,–,–,–,–,–,CN[C@H]1CCN(c2cnc3nc(-c4cc5cn(C)nc5c(C)c4O)ccc3c2)C1 [Compound 111],A (<100 nM),–,–
< 100,< 100,< 100,–,–,–,–,–,–,"Cn1cc2cc(-c3cnc4cc(C5CCNCC5)ccc4n3)c(O)c(F)c2n1 [Compound 167, 7-fluoro-2-methyl-5-[6-(piperidin-4-yl)quinoxalin-2-yl]indazol-6-ol]",A (<100 nM),–,–

# Further lines, the molecule ahead of its results:
SMILES,IC50 (HiBiT-tagged HTT protein) [nM],IC50 (HiBiT-tagged MYB protein) [nM],IC50 (Target C) [nM],IC50 (Target C mRNA) [nM],IC50 (SMN2 mRNA) [nM],IC50 (HTT mRNA; [1]) [nM],IC50 (HTT mRNA; [2]) [nM],IC50 (MYB mRNA; [4]) [nM],IC50 (MYB mRNA; [5]) [nM],"Effect on Cell Viability, K562 (K562 cells)",AC50 (HTT mRNA; [3]) [nM],AC50 (MYB mRNA; [3]) [nM]
"Cc1cn2cc(-c3ccc4cc(N(C)[C@@H]5CCNC5)cnc4n3)cc(F)c2n1 [Compound 361, 7-{8-fluoro-2-methylimidazo[1,2-a]pyridin-6-yl}-N-methyl-N-[(3R)-pyrrolidin-3-yl]-1,8-naphthyridin-3-amine hydrochloride]",–,–,–,> 10000,> 10000,> 10000,> 10000,> 10000,> 10000,C (1000-9999 nM),> 10000,> 10000
Cc1cn2nc(-c3cc(Cl)c4cc(N5C[C@H](C)NC6(CC6)C5)cnc4n3)cc(C)c2n1 [Compound 400],–,–,–,1000 to 10000,< 100,1000 to 10000,1000 to 10000,100 to 1000,100 to 1000,C (1000-9999 nM),1000 to 10000,100 to 1000
Cc1c(O)c(-c2cc(Cl)c3cc(N4C[C@H](C)NC5(CC5)C4)cnc3n2)cc2cn(C)nc12 [Compound 398],–,–,–,> 10000,< 100,100 to 1000,100 to 1000,< 100,< 100,B (100-1000 nM),100 to 1000,< 100
"C[C@H]1CN(c2cnc3nc(-c4cc(F)c5nn(C)cc5c4)ccc3c2)CCN1 [Compound 373, 2-(7-fluoro-2-methylindazol-5-yl)-6-[(3S)-3-methylpiperazin-1-yl]-1,8-naphthyridine]",–,–,–,1000 to 10000,< 100,1000 to 10000,1000 to 10000,100 to 1000,100 to 1000,B (100-1000 nM),1000 to 10000,100 to 1000
